Legend:
A. baumannii SAN-94040 = assay: Additional mouse model of A. baumannii pneumonia (Example 7): survival; assay type: in vivo, Acinetobacter baumannii
Description: The bacterial inoculum was prepared in order to obtain a suspension containing 10^8 CFU/mL of Acinetobacter baumannii in saline, unless indicated otherwise.
(§1) Experimentations were performed with six-week old female C3H/HeN mice (18-20 g, Harlan Laboratories) because of their particular susceptibility to Acinetobacter baumannii. Each mouse was individually marked and housed in cages containing five animals/cage under ventilated and controlled (temperature and humidity) atmosphere.
The mice were rendered transiently neutropenic by 2 intra-peritoneal (IP) injections of 150 μL of cyclophosphamide (150 mg/kg) 4 (D-4) and 3 (D-3) days before the Acinetobacter baumannii inoculation (Day 0).
Mice were infected with 50 μL the prepared bacterial suspension (inoculums depending on experiment) via intra-tracheal inoculation of mouse. In the study, three animals (Group 1) were sacrificed after inoculation to determine bacterial burden in lungs at the time of infection. Lungs were aseptically removed, weighed and homogenized in 1 mL of 0.9% NaCl. Homogenates were serially diluted and plated on TSA agar. Plates were incubated overnight at 37° C. in 5% CO2. Following incubation, colonies were counted for bacterial growth.
Animal survival was assessed every day for 7 days. Survival data were tabulated and a Probit analysis performed to determine the 50% protective dose (PD50) for each group.
The aim of this experiment was to assess the survival rate of transiently neutropenic female C3H/HeN mice administered, 3 hours post-inoculation of A. baumannii SAN-94040 via intra-tracheal route, with compound (I) via intra-peritoneal route at 200 mg/kg 3 times daily (every 8 hours) for 1 day alone and in combination with meropenem at 30 mg/kg 3 times daily (every 8 hours) for 1 day.

A. baumannii RCH-69 = assay: Mouse model of A. baumannii pneumonia, Study 3: survival; assay type: in vivo, Acinetobacter baumannii; conditions: neutropenic C3H/HeN mice, q 8 h I.P. 3 days, compound (I) 200 mg/kg, meropenem 50 mg/kg, colistin 125000 Ul/kg
Description: The bacterial inoculum was prepared in order to obtain a suspension containing 10^8 CFU/mL of Acinetobacter baumannii in saline.
as §1, with “Breeding Centre JANVIER (Ile saint Genest Mayenne 53))” for “Harlan Laboratories)”, “baumannii and the reproducibility of the results (inbreeding in the breed).” for “baumannii.”
The mice were rendered transiently neutropenic by 2 intra-peritoneal (IP) injections of 150 μL of cyclophosphamide (Endoxan® 150 mg/kg) 4 (D-4) and 3 (D-3) days before the Acinetobacter baumannii inoculation (Day 0). This transient immunosuppression was sufficient to facilitate the development of the A. baumannii pneumonia while allowing the recovery of the neutrophil influx 2 (Day 2) days after inoculation in order to avoid or limit a systemic bacterial dissemination.
Mice were anesthetized by a mixture of oxygen and isoflurane. The bacterial inoculation was performed on Day 0 by intra-tracheal installation using an endotracheal catheter (50 μl of the suspension, thus 5.106 CFU). The positioning of the catheter in the trachea (instead of in the oesophagus) was checked by a “ring test”. The bacterial count in lungs was checked for all study groups by sacrificing one mouse immediately after inoculation.
Survival observations were assessed twice daily, up to 4 days post infection. The survival rates were compared with the Chi-square test or the Fisher exact test as appropriate. The survival curves were compared by the Kaplan-Meier method.
The aim of this experiment was to assess the survival rate of transiently neutropenic female C3H/HeN mice administered, 3 hours post-inoculation of A. baumannii RCH-69 via intra-tracheal route, with a compound (I) via intra-peritoneal route at 200 mg/kg 3 times daily (every 8 hours) for 3 days alone and in combination with meropenem at 50 mg/kg 3 times daily (every 8 hours) for 3 days or with colistin at 125000 UI/kg 3 times daily (every 8 hours) for 3 days. 85 mice were allocated into 6 groups as follows.
Six vials of 8 mL each containing 94.2 mg/mL of compound (I) and 47.1 mg/mL of PVP 12 PF (Kollidon 12 PF) were prepared and stored between +2° C. and +8° C. Following storage, each vial was homogenized by manual shaking and diluted by 2-fold in 13.72 mg/mL NaCl aqueous solution in order to obtain a 47.1 mg of compound (I)/mL isotonic suspension. In Groups 2, 4 and 5, mice were administered with 100 μL of the 47.1 mg/mL compound (I) suspension.

[1] = system: Staphylococcus aureus (MSSA, MRSA, VISA, VRSA); conditions: VISA and VRSA strains; cited from earlier work
[2] = system: MSSA, MRSA and VISA infections; conditions: murine model; cited from earlier work
S. aureus = conditions: healthy human volunteers, Phase I study; cited from earlier work
[3] = Example 7, 24 h after SAN-94040 infection, compound (I) 200 mg/kg, meropenem 30 mg/kg, colistin 125000 UI/kg Q8h I.P. for 1 day
[4] = Example 7, 24 h after infection, doses as E246
[5] = Example 7, 48 h after infection, doses as E246
[6] = Example 7, 72 h after infection, doses as E246
[7] = Example 7, 96 h after infection, doses as E246
[8] = 24 h after RCH strain infection
[9] = 48 h after RCH strain infection
[10] = 72 h after RCH strain infection
[11] = 96 h after RCH strain infection

| SMILES | No. of survivors (A. baumannii SAN-94040; [3]) | survivors (%) (A. baumannii SAN-94040; [4]) | No. of survivors (A. baumannii SAN-94040; [5]) | survivors (%) (A. baumannii SAN-94040; [5]) | No. of survivors (A. baumannii SAN-94040; [6]) | survivors (%) (A. baumannii SAN-94040; [6]) | No. of survivors (A. baumannii SAN-94040; [7]) | survivors (%) (A. baumannii SAN-94040; [7]) | survival rate (A. baumannii SAN-94040; Example 7, text, time not stated) [%] | No. of survivors (A. baumannii RCH-69; 0 h after RCH strain infection) | survivors (%) (A. baumannii RCH-69; 0 h after RCH strain infection) | No. of survivors (A. baumannii RCH-69; [8]) | survivors (%) (A. baumannii RCH-69; [8]) | No. of survivors (A. baumannii RCH-69; [9]) | No. of survivors (A. baumannii RCH-69; [10]) | No. of survivors (A. baumannii RCH-69; [11]) | in vitro activity [1] | in vivo activity [2] | ex vivo activity (S. aureus) |
| --- | --- | --- | --- | --- | --- | --- | --- | --- | --- | --- | --- | --- | --- | --- | --- | --- | --- | --- | --- |
| CCc1cc(O)c(Oc2ccc(C(N)=O)cc2F)cc1F [compound (I), 4-(4-ethyl-5-fluoro-2-hydroxyphenoxy)-3-fluorobenzamide] | 10 | 100 | 8 | 80 | 6 | 60 | 6 | 60 | 60 | 13 | 100 | 5 | 38 | 0 | 0 | 0 | highly active | active in vivo | ex vivo bactericidal activity |
| C[C@@H](O)[C@H]1C(=O)N2C(C(=O)O)=C(S[C@@H]3CN[C@H](C(=O)N(C)C)C3)[C@H](C)[C@H]12 [meropenem] | 10 | 100 | 10 | 100 | 10 | 100 | 10 | 100 |  | 14 | 100 | 14 | 100 | 0 | 0 | 0 |  |  |  |

Reference: US20150065416A1, “NOVEL DRUG COMBINATION” (FAB PHARMA SAS, priority 2013, published 2015)
